Assay results as given in article doi:10.1101/2023.11.24.568596v1 (biorxiv, 2023).
Each block holds one molecule with its values, some of them ahead of it.

How the values were obtained:
Conditions in all cases: binder
[1] = target: SRC (Homo sapiens, UniProt P12931)
[2] = target: BRAF (Homo sapiens, UniProt P15056)
[3] = target: BRD4 (Homo sapiens, UniProt O60885)
[4] = target: T1, DRAK1 (Homo sapiens, UniProt Q9UEE5)
T1 sequence (Q9UEE5 1-414): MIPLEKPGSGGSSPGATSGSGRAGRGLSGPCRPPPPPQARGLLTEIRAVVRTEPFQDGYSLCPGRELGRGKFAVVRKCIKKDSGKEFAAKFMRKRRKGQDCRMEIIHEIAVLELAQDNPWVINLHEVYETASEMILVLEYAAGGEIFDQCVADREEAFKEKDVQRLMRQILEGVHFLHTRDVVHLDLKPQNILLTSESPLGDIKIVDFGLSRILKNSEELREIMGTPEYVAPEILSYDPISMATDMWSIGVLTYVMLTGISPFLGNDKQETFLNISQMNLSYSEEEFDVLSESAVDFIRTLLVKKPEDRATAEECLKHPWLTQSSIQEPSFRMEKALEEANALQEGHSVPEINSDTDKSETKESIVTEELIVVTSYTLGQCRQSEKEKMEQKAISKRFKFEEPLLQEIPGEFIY

[5] = target: T2, EphB3 (Homo sapiens, UniProt P54753)
T2 sequence (P54753 1-998): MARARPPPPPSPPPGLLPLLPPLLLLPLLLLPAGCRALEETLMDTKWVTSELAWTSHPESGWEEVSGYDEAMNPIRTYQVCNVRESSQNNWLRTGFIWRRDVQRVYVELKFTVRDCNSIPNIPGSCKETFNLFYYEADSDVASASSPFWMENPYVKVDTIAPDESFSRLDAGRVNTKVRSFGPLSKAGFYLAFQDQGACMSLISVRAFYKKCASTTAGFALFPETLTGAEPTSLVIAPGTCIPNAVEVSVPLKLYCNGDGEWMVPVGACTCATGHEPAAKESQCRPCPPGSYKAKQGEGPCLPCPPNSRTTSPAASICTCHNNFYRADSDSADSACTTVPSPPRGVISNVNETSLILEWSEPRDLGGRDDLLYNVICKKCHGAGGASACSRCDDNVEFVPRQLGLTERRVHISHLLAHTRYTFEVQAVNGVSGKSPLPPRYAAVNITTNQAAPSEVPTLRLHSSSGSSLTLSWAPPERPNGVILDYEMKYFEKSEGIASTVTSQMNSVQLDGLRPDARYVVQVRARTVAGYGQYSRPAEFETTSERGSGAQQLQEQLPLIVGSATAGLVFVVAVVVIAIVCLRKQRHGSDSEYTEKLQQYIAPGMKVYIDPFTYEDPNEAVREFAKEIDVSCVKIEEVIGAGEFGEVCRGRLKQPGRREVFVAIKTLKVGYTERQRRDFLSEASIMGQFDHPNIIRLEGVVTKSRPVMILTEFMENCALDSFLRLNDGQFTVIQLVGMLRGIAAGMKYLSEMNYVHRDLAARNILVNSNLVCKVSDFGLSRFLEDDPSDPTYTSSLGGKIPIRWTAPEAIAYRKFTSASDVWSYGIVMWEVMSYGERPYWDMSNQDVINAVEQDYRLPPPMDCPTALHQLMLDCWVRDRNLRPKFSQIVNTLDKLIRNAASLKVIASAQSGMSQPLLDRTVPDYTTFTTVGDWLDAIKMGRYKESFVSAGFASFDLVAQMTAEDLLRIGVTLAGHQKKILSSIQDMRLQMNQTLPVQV

[6] = target: BIKE (Homo sapiens, UniProt Q9NSY1)
Sequence of BIKE (Q9NSY1 whole entry): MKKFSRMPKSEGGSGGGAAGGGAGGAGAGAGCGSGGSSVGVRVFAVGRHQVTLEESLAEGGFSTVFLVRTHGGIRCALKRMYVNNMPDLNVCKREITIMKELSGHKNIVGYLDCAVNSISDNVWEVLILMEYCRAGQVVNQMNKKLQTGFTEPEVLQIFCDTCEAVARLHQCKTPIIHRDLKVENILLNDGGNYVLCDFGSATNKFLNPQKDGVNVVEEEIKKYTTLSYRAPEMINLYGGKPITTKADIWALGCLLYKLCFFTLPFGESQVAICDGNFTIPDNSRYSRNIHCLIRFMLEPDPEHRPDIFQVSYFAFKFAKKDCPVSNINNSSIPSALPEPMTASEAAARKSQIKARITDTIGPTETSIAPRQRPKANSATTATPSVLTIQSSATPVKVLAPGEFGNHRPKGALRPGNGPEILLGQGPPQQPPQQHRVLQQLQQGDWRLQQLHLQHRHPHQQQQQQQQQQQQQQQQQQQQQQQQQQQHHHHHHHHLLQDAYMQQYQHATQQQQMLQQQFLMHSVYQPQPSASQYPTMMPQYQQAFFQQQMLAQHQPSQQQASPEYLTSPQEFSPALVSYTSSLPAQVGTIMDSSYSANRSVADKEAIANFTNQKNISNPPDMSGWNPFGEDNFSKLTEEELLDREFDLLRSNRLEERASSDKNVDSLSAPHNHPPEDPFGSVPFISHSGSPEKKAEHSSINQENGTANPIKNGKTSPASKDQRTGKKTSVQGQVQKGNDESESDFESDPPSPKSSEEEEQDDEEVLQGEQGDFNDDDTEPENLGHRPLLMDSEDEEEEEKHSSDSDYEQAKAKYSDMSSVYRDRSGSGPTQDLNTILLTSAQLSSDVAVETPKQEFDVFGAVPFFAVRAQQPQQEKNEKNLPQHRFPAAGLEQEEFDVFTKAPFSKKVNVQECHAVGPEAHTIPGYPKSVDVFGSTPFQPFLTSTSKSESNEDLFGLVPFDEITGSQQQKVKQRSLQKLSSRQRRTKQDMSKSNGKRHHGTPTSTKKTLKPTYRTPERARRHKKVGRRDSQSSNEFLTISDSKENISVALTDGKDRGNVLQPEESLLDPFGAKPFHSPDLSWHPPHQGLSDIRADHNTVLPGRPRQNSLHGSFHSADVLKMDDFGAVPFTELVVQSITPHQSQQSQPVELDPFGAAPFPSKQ

Sequence of BRAF (P15056 whole entry): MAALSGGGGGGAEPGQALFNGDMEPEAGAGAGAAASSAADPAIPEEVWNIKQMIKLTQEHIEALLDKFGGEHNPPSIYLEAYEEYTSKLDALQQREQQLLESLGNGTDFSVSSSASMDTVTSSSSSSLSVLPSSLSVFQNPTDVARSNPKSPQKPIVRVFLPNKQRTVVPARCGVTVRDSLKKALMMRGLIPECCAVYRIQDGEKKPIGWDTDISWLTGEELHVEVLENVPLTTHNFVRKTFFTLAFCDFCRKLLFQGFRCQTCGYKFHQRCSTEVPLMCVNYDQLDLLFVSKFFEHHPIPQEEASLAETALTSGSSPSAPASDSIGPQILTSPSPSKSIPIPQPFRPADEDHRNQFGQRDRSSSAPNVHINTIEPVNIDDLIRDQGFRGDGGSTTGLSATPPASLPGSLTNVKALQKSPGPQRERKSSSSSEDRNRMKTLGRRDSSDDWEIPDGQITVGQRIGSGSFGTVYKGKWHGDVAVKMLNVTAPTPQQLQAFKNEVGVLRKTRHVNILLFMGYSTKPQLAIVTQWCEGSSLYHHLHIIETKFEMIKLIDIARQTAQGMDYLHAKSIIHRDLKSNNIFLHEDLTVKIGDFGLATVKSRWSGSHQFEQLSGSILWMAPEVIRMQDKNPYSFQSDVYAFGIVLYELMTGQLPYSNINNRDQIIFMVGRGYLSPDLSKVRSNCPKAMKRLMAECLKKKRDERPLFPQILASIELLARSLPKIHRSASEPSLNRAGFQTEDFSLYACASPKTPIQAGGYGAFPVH
Sequence of SRC (P12931 whole entry): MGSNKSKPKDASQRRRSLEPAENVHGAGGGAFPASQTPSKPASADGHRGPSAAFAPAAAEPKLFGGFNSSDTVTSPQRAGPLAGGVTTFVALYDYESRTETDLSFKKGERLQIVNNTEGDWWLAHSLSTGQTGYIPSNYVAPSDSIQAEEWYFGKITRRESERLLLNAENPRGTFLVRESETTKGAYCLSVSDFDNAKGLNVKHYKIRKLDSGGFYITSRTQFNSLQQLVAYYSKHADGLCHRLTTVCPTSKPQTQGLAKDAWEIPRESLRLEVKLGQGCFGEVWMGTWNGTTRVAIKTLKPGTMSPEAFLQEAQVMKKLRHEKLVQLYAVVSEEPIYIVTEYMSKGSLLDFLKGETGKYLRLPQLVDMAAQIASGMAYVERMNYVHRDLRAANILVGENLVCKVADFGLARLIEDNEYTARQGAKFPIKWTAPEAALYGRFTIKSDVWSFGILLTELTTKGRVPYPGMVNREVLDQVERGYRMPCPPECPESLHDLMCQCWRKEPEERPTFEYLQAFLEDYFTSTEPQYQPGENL

dTm 33 [1]: 4.7 °C | dTm 33 [2]: 6.3 °C | dTm 33 [3]: -3.7 °C | dTm 33 [4]: 3.5 °C | dTm 33 [5]: 8.7 °C | dTm 33 [6]: 7.2 °C
Structure (SMILES): Cc1cccc(-c2ccc(-c3cc4cnc(Nc5ccc(F)c(CO)c5)nc4n(CCCCN)c3=O)c(Cl)c2)n1 [compound 33, 8-(4-Aminobutyl)-6-(2-chloro-4-(6-methylpyridin-2-yl)phenyl)-2-((4-fluoro-3-(hydroxymethyl)phenyl)amino)pyrido[2,3-d]pyrimidin-7(8H)-one]

dTm 34 [1]: 3.1 °C | dTm 34 [2]: 1.1 °C | dTm 34 [3]: -1.8 °C | dTm 34 [4]: 2.2 °C | dTm 34 [5]: 4.1 °C | dTm 34 [6]: 0.8 °C
Structure (SMILES): COc1ccc(O)c(Nc2ncc3cc(-c4ccc(-c5cccc(C)n5)cc4Cl)c(=O)n(CCCCN)c3n2)c1 [compound 34, 8-(4-Aminobutyl)-6-(2-chloro-4-(6-methylpyridin-2-yl)phenyl)-2-((2-hydroxy-5-methoxy-phenyl)amino)pyrido[2,3-d]pyrimidin-7(8H)-one]

dTm 35 [1]: 4.4 °C | dTm 35 [2]: 0.8 °C | dTm 35 [3]: -3.6 °C | dTm 35 [4]: 5.2 °C | dTm 35 [5]: 4.5 °C | dTm 35 [6]: 1.3 °C
Structure (SMILES): COc1cc(N2CCOCC2)ccc1Nc1ncc2cc(-c3ccc(-c4cccc(C)n4)cc3Cl)c(=O)n(CCCCN)c2n1 [compound 35, 8-(4-Aminobutyl)-6-(2-chloro-4-(6-methylpyridin-2-yl)phenyl)-2-((2-methoxy-4-morpholino-phenyl)amino)pyrido[2,3-d]pyrimidin-7(8H)-one]

dTm 36 [1]: 4.1 °C | dTm 36 [2]: 0.8 °C | dTm 36 [3]: -3.5 °C | dTm 36 [4]: 6.1 °C | dTm 36 [5]: 3.3 °C | dTm 36 [6]: 1.0 °C
Structure (SMILES): COc1cc(N2CCN(C)CC2)ccc1Nc1ncc2cc(-c3ccc(-c4cccc(C)n4)cc3Cl)c(=O)n(CCCCN)c2n1 [compound 36, 8-(4-Aminobutyl)-6-(2-chloro-4-(6-methylpyridin-2-yl)phenyl)-2-((2-methoxy-4-(4-methylpiperazin-1-yl)phenyl)amino)pyrido[2,3-d]pyrimidin-7(8H)-one]
